The assay deals with NIH3T3-HGL HSF-1 response element luciferase, 48 h. Nature of the assay: HSF-1 reporter activators over prolonged exposure, confirmation, cell-based, mouse, luciferase, cherry-pick, dose (AID 602296).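 Further: test compounds applied by themselves with no MG132 co-treatment.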

Results filed as inconclusive are left out. The source made the active and inactive calls.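 How the source made its calls: active means fitted activation curve crossing 40% at a concentration no higher than the sample's top valid tested dose; inconclusive means flat fitted curve at 30% to 70% activation, or poor curve fit; inactive means signal decrease, flat curve within 30%, or the rest.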 Peptide text beside a SMILES is read from it. * marks the point of attachment. Boc = CC(C)(C)OC(=O)*; OtBu = CC(C)(C)O*

In the case of `C(=N\N1CCN(Cc2cccc3ccccc23)CC1)/c1cccnc1`, the AC40 was > 26 µM (inactive).

As for `Cc1ccc(-c2nc3ncccn3c2Nc2ccccc2C)o1`, the AC40 is > 26 µM (inactive).

For `O=C1CCC(/C=C/c2ccccc2)=NN1`, the AC40 was > 26 µM (inactive).

Consider `ON=C1c2ccccc2-c2ccccc21`, for which the AC40 was 15.8 µM.

Turning to `Cn1ccc(C(=O)N/N=C/c2ccncc2)n1`, the AC40 is 14.3 µM.

On to `Cc1cccc(C)c1NC(=O)COC(=O)c1cccc2c1C(=O)c1ccccc1C2=O`, for which the AC40 was > 26 µM (inactive).

On to `COc1cc(/C=N/N2C(=O)c3ccccc3NC2(C)c2cccc([N+](=O)[O-])c2)cc(Br)c1O` (centres undefined), for which the AC40 was > 26 µM (inactive).

As to `O=C1NCC2=C1C(c1ccc(Br)cc1)Nc1ccccc1N2` (centres undefined), the AC40 was 3.58 µM.

Take `CCCNC(=O)NC(=O)CSc1cccc(C(F)(F)F)c1`: the AC40 was 13.5 µM.

Regarding `O=C(CSc1ccc(Cl)cc1)N1CCN(c2c(Cl)cccc2[N+](=O)[O-])CC1`, the AC40 was 3.34 µM.

As for `Cc1ccc(O)c(NC(=O)c2onc(C)c2Cl)c1`, the AC40 was > 26 µM (inactive).

On to `Nc1c(-c2ccsc2)cnc2ncnn12`, for which the AC40 was > 26 µM (inactive).

For the molecule `N#CCCn1cc(C=C(C#N)C#N)c(-c2ccc(-c3ccccc3)cc2)n1`, the AC40 was > 12 µM (inactive).

With `c1ccc2c3c([nH]c2c1)CCNC3`, the AC40 was > 26 µM (inactive).

Turning to `CCN(C(=O)c1cc2c(=O)[nH]c3ccc(C)cc3c2s1)c1ccccc1F`, the AC40 was > 26 µM (inactive).

`CCCC(=O)Nc1cc(-c2nn(C)c(=O)c3ccccc23)ccc1OC`: the AC40 is > 26 µM (inactive).

For the molecule `Cc1ccc(N2Cc3ccccc3OC(C)C2=O)cc1` (centres undefined), the AC40 is > 26 µM (inactive).

In the case of `COCc1cc(=O)[nH]c(SCCS(=O)(=O)c2ccc(Cl)cc2Cl)n1`, the AC40 was > 12 µM (inactive).

Regarding `CN(Cc1ccccc1)C(=O)c1cc(-c2ccc(Br)cc2)on1`, the AC40 is 2.21 µM.

With `O=C(CSc1nnc(-c2ccc(F)cc2)c2ccccc12)Nc1ccccc1`, the AC40 is 18.7 µM.

With `CCn1nc(C)cc1C(=O)Sc1ccc(Cl)cc1Cl`, the AC40 was 14.5 µM.

`NC1=NC(=O)/C(=C/c2cn(Cc3ccccc3)c3ccccc23)S1`: the AC40 is 9.09 µM.

As for `CC1CCN(c2ccc(C=O)o2)CC1`, the AC40 was > 26 µM (inactive).

Take `CN(Cc1nnc(-c2ccc(F)cc2)o1)c1ccccc1`: the AC40 was 9.33 µM.

In the case of `COC(=O)c1ccc(CSc2ncnc3c2oc2ccccc23)o1`, the AC40 was > 26 µM (inactive).

For the molecule `Cc1ccccc1OCCCC(=O)Nc1ccccc1C(F)(F)F`, the AC40 was > 26 µM (inactive).

Consider `CC(C)=NN1C(=O)c2ccccc2NC1(C)C`, for which the AC40 was > 26 µM (inactive).

As for `COC(=O)CC/C(O)=C1/C(=N)CC(C)(C)CC1=O`, the AC40 was > 12 µM (inactive).

`Cc1cc(/C=C(/C#N)c2cccc(Cl)c2)c(C)n1C`: the AC40 was > 26 µM (inactive).

In the case of `COc1ccc(OC)c(-n2c(=O)c3ccccc3c3ccccc3c2=O)c1`, the AC40 was 12.4 µM.

`CC(=O)Nc1ccc(N/C=C/C(=O)C(C)(C)C)cc1`: the AC40 was > 26 µM (inactive).

As to `C[C@]12CC[C@@H]3c4cc(O)c(O)cc4CC[C@H]3[C@@H]1CC[C@@H]2O`, the AC40 was 25.2 µM.

With `CC1(C)Cc2c(C#N)c(N)n(-c3ccccc3)c(=S)c2CO1`, the AC40 was > 26 µM (inactive).

For `CCN(CCCNC(=O)CNC(=O)c1nn(-c2ccc(OC)cc2OC)c(=O)c2ccccc12)c1cccc(C)c1`, the AC40 was > 26 µM (inactive).

Regarding `COc1c(Br)cc(Br)cc1C(=O)O`, the AC40 is > 26 µM (inactive).

Consider `COc1ccc(C)cc1-n1c(=O)c2ccccc2c2ccccc2c1=O`, for which the AC40 is > 26 µM (inactive).

On to `Cc1ccc(/C=C2/NC(=O)N(Cc3ccc(Br)cc3)C2=O)o1`, for which the AC40 was > 26 µM (inactive).

For the molecule `COc1ccc(Cc2nnc(SCC(=O)Nc3ccc(N4CCOCC4)cc3)o2)cc1`, the AC40 is > 26 µM (inactive).

Turning to `COc1ccc(N2CCN(c3ncnc4c3cnn4-c3ccc(C)cc3C)CC2)cc1`, the AC40 is > 26 µM (inactive).

Turning to `CCOC(=O)c1sc(C)c2c1NC(C)(c1cccc3ccccc13)NC2=O` (centres undefined), the AC40 is > 26 µM (inactive).

Turning to `Nc1nnc(SCc2c(F)cccc2Cl)s1`, the AC40 is 14.4 µM.

Turning to `O=C1CCCN1CCCN=c1c([N+](=O)[O-])nn(-c2ccc(Cl)cc2)n1O`, the AC40 was > 12 µM (inactive).

For `Cc1ccc(CN2CCN(CC(C)C)C(CCO)C2)s1` (centres undefined), the AC40 was 1.66 µM.

On to `CC(OC(=O)/C=C/c1ccc2ccccc2n1)C(=O)NCc1ccccc1` (centres undefined), for which the AC40 is 25.9 µM.

Consider `CSc1ccc(/C=N\Nc2nncn2N)cc1`, for which the AC40 was > 26 µM (inactive).

With `COc1ccc(/C=C\c2nc(=O)c3ccccc3o2)cc1`, the AC40 was > 26 µM (inactive).

With `CCCN(CC(=O)Nc1ccc(Cl)cc1Cl)C(=O)/C=C/c1ccco1`, the AC40 is 13 µM.

Take `Cc1cc(-c2ccc(C(C)C)c(S(=O)(=O)NCCN3CCC(C)CC3)c2)on1`: the AC40 is > 26 µM (inactive).

Take `COc1ccc(N=C2NC(=O)/C(=C\C=C\c3ccco3)S2)cc1`: the AC40 was 12.1 µM.

As for `CCOc1ccccc1CNCCN1CCOCC1`, the AC40 is > 26 µM (inactive).

Regarding `O=C(CSc1nccn(-c2ccc(F)c(F)c2)c1=O)NC1CCCC1`, the AC40 is > 26 µM (inactive).

With `COc1ccc2cc(/C=C/C(=O)N3CCN(CC(=O)N4CCCCCC4)CC3)ccc2c1`, the AC40 is 12.6 µM.

Regarding `Cc1noc2ncnc(Sc3ccc(Br)cc3)c12`, the AC40 is > 26 µM (inactive).

With `N#Cc1ccsc1NC(=O)CN1CCN(S(=O)(=O)c2ccc3ccccc3c2)CC1`, the AC40 was > 26 µM (inactive).

With `CC(C)(C)c1ccc(COc2ccsc2C(=O)O)cc1`, the AC40 was 4.42 µM.

Take `COC(=O)C1NN=C(C(=O)c2ccc(Cl)cc2)C1c1ccc(OC)cc1` (centres undefined): the AC40 was > 26 µM (inactive).

With `COC(=O)C(Cc1ccc(O)cc1)NC(=O)C(CC(=O)OC(C)(C)C)NC(=O)OC(C)(C)C` (centres undefined) (Boc-Asp(OtBu)-Tyr-OMe; configuration not given here), the AC40 was 16.5 µM.

As to `CCC(C)c1ccccc1NC(=O)c1cc(C)no1` (centres undefined), the AC40 is > 26 µM (inactive).

With `CC(C)(C)NC(=O)c1ccc2c(c1)N(CC(=O)N1CCCCC1)C(=O)C(C)(C)O2`, the AC40 was > 26 µM (inactive).

`CCN(CC)C(=O)Oc1ccc(Br)cc1C(=O)Nc1ccc(F)cc1F`: the AC40 was > 26 µM (inactive).

As for `NC(=O)Cc1ccc2c(c1)[nH]c1ccccc12`, the AC40 was > 26 µM (inactive).

Regarding `COc1cc(OC)c(OC)cc1CN(C)CCc1ccccn1`, the AC40 is 25.8 µM.

Take `O=C(O)CN1C(=O)/C(=C\c2cc(Br)ccc2OCc2ccc(F)cc2)SC1=S`: the AC40 is > 26 µM (inactive).

With `CCOC(=O)/C(=N/Nc1ccc(Cl)cc1)Sc1nnnn1-c1ccc(C)cc1`, the AC40 was > 12 µM (inactive).

With `O=C(CSc1nc2nccnc2c(=O)n1Cc1cccs1)Nc1ccccc1F`, the AC40 was 9.52 µM.

Take `CN1CCC(=NNc2ccc(S(=O)(=O)N3CCOCC3)cc2[N+](=O)[O-])CC1`: the AC40 is > 26 µM (inactive).

For `Cc1ccc(NC(=O)Cn2c(CCC(=O)O)ccc2-c2cccs2)cc1`, the AC40 is > 26 µM (inactive).

`CC(C)CCN=CC1=C(O)CC(c2ccccc2)CC1=O` (centres undefined): the AC40 was > 26 µM (inactive).

Regarding `CC1CC(C)(C)N(C(=O)NC2CCCCC2)c2ccccc21` (centres undefined), the AC40 is 12.9 µM.

On to `CCNC(=S)N/N=C/c1ccc(-c2ccccc2)o1`, for which the AC40 was > 26 µM (inactive).

Regarding `Cc1cc(C)cc(OCC(O)CN2C(=O)NC(C)(C)C2=O)c1` (centres undefined), the AC40 is > 26 µM (inactive).

`CCOC(=O)c1c(C)n(-c2ccc(C)cc2)c2c(CC(C)=O)c(Br)c(OC)c(O)c12`: the AC40 was > 26 µM (inactive).

Turning to `CCC(C)(C)c1ccc(OC(=O)c2cccnc2Cl)cc1`, the AC40 is > 26 µM (inactive).

For `O=C(Cc1cccs1)NCc1ccccc1Br`, the AC40 is 1.77 µM.

As for `Cc1ccc(CN(C)C(=O)C2CCC(=O)N(CCc3ccccc3)C2)o1` (centres undefined), the AC40 was 9.82 µM.

On to `CCCN1C(=O)c2ccccc2NC1c1ccc(Cl)c(Cl)c1` (centres undefined), for which the AC40 is > 26 µM (inactive).

`C=CCn1c(=O)c2ccccc2n2c(SCC(=O)Nc3sc(C)c(CC)c3C(=O)OCC)nnc12`: the AC40 is > 26 µM (inactive).

Turning to `CCN(CC)C(=O)c1ccc(C)c(Br)c1`, the AC40 was > 26 µM (inactive).

With `O=C(NC(CO)(CO)CO)c1coc(=O)c(Br)c1`, the AC40 is > 26 µM (inactive).

In the case of `N#CC(C#N)=C1C=CC=CN1/C(=C\c1ccccc1)C(=O)c1cccs1`, the AC40 was 12.3 µM.

With `Cc1nc2ncnn2c(C)c1CCC(=O)NCc1ccco1`, the AC40 is > 26 µM (inactive).

As for `NC(CSCc1cccc(Br)c1)C(=O)O` (centres undefined), the AC40 is > 26 µM (inactive).

As to `CCOC(=O)C(=O)/C(C#N)=C/Nc1ccccc1`, the AC40 was > 26 µM (inactive).

In the case of `CC(=O)N=c1sccn1CC(=O)c1ccc([N+](=O)[O-])cc1`, the AC40 is > 26 µM (inactive).

On to `O=C(O)CC12C[C@H]3C[C@@H](C1)CC(n1ncc(N4CCN(c5ccccc5)CC4)c(Cl)c1=O)(C3)C2`, for which the AC40 was > 26 µM (inactive).

For `CC(C)(CNC(=O)/C=C/c1ccc(F)cc1)CNC(=O)/C=C/c1ccc(F)cc1`, the AC40 is > 26 µM (inactive).

In the case of `Cc1ccnc(N2CCCC(C(=O)Nc3ccc(C)c(C)c3)C2)n1` (centres undefined), the AC40 is > 26 µM (inactive).

On to `CC(/C=C/c1cccs1)=C\C(=O)O`, for which the AC40 is > 26 µM (inactive).

Turning to `CC(C)Nc1nc(Cl)nc(N(C#N)CN2C(=O)c3ccccc3C2=O)n1`, the AC40 is > 26 µM (inactive).

Turning to `CCCCOc1ccc(C(=O)N/N=C/c2cn[nH]c2-c2ccc(OC)c(OC)c2)cc1`, the AC40 is > 26 µM (inactive).

With `NC(N)=NS(=O)(=O)c1ccc(NC(=S)NC(=O)c2ccc(Br)cc2)cc1`, the AC40 was 17.5 µM.

Consider `O=C(NCc1ccco1)C1CC(O)CN1C(=O)Nc1ccccc1` (centres undefined), for which the AC40 is > 26 µM (inactive).

Turning to `N#Cc1ccc(OCCN2CCc3ccccc3C2)cc1`, the AC40 was 8.01 µM.

On to `C=CC[n+]1c(-c2ccc(OC)cc2)csc1NNC(=O)Nc1ccccc1`, for which the AC40 is > 12 µM (inactive).
